According to the supplement of paper PMC10307832:

Key:
Assay in all cases: relative viability (nuclei count vs DMSO), 5 days (fraction); higher = more cells survive
[1] = compound: O=C(Nc1cccc(C(F)(F)F)c1)Nc1cc(S(=O)(=O)NC2CC2)ccc1-c1ccsc1 [AGI-6780] + CC(=O)c1c(C)c2cnc(Nc3ccc(N4CCNCC4)cn3)nc2n(C2CCCC2)c1=O [Palbociclib] (partner 0.5 µM)
In short: (§1)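 Each reported value is a median over duplicate plates. It expresses relative viability: treated-well nuclei count divided by vehicle-well nuclei count. Lung cancer cell lines in 1536-well plates were dosed by pin tool a day after seeding, alone with one drug or with a fixed anchor-drug dose plus five library-drug doses (not always all listed) in √10 steps, and nuclei were counted after 5 days.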

[2] = compound: O=C(Nc1cccc(C(F)(F)F)c1)Nc1cc(S(=O)(=O)NC2CC2)ccc1-c1ccsc1 [AGI-6780] + NC(=O)Nc1cc(-c2cccc(F)c2)sc1C(=O)N[C@H]1CCCNC1 [AZD7762] (partner 0.2 µM)
In short: as §1

[3] = compound: O=C(Nc1cccc(C(F)(F)F)c1)Nc1cc(S(=O)(=O)NC2CC2)ccc1-c1ccsc1 [AGI-6780] + O=C(CCCCCCC(=O)Nc1ccccc1)NO [Vorinostat] (partner 1 µM)
In short: as §1

[4] = compound: O=C(Nc1cccc(C(F)(F)F)c1)Nc1cc(S(=O)(=O)NC2CC2)ccc1-c1ccsc1 [AGI-6780] + C[C@@H](Oc1cc(-c2cnn(C3CCNCC3)c2)cnc1N)c1c(Cl)ccc(F)c1Cl [Crizotinib] (partner 1 µM)
In short: as §1

Cell Line	relative viability ([1]; first compound 0.08 µM)	relative viability ([1]; first compound 0.253 µM)	relative viability ([1]; first compound 0.8 µM)	relative viability ([1]; first compound 2.53 µM)	relative viability ([1]; first compound 8 µM)	relative viability ([2]; first compound 0.08 µM)	relative viability ([2]; first compound 0.253 µM)	relative viability ([2]; first compound 0.8 µM)	relative viability ([2]; first compound 2.53 µM)	relative viability ([2]; first compound 8 µM)	relative viability ([3]; first compound 0.08 µM)	relative viability ([3]; first compound 0.253 µM)	relative viability ([3]; first compound 0.8 µM)	relative viability ([3]; first compound 2.53 µM)	relative viability ([3]; first compound 8 µM)	relative viability ([4]; first compound 0.08 µM)	relative viability ([4]; first compound 0.253 µM)	relative viability ([4]; first compound 0.8 µM)	relative viability ([4]; first compound 2.53 µM)	relative viability ([4]; first compound 8 µM)
201T	0.359	0.367	0.353	0.329	0.344	0.612	0.577	0.565	0.535	0.656	0.991	0.98	1.06	0.951	1.04	1.04	1.04	1.01	1.03	1.05
A549	–	–	–	–	–	–	–	–	–	–	–	–	–	–	–	0.763	0.765	0.855	0.625	0.836
A-427	–	0.504	0.548	0.462	0.491	–	0.706	0.806	0.766	0.783	–	0.82	0.857	0.816	0.836	1.02	0.897	1.06	0.693	0.901
ABC-1	–	0.666	0.846	0.608	0.905	0.774	0.967	0.891	–	1.08	–	1.52	1.38	0.842	1.03	1.1	1.17	1.69	1.2	0.978
BEN	0.488	0.429	0.457	–	0.502	0.6	0.737	0.754	–	0.721	0.62	0.539	0.692	–	0.629	0.891	0.738	0.955	–	0.966
CAL-12T	0.407	0.465	0.651	0.46	0.367	0.616	0.649	0.806	0.781	0.687	0.884	0.729	1.16	0.662	0.732	0.686	0.681	0.61	0.87	0.716
COR-L23	0.322	0.257	0.298	0.277	0.329	–	–	–	–	–	0.348	0.425	0.429	0.554	0.453	0.678	0.622	0.564	0.754	0.617
COR-L 105	0.395	0.301	0.417	0.371	0.37	–	–	–	–	–	0.908	1.34	0.975	0.97	0.841	0.899	0.738	1.01	0.708	0.848
Calu-6	–	–	–	–	–	–	–	–	–	–	–	–	–	–	–	0.822	0.829	0.948	0.824	0.752
ChaGo-K-1	0.951	0.968	0.921	0.921	0.898	0.851	0.932	0.932	0.812	0.919	0.727	0.787	0.745	0.63	0.825	1.18	1.06	1.43	0.959	1.14
EBC-1	–	–	–	–	–	–	–	–	–	–	–	–	–	–	–	0.199	0.184	0.186	0.175	0.183
EKVX	0.411	0.368	0.368	0.352	0.406	0.675	0.728	0.806	0.681	0.641	0.827	0.686	0.752	0.721	0.614	0.904	0.813	1.15	0.888	1.07
EMC-BAC-2	–	0.535	0.487	0.437	0.543	–	1.15	1.16	0.877	1.02	–	0.453	0.809	0.4	0.421	0.791	0.728	0.763	0.668	0.78
EPLC-272H	0.318	0.356	0.318	0.337	0.329	0.2	0.369	0.345	0.278	0.219	0.351	0.401	0.318	0.554	0.289	0.888	0.929	0.841	0.714	0.791
H3255	0.292	0.304	0.307	0.315	0.31	0.834	0.918	1.05	1.01	0.875	0.541	0.865	0.893	–	0.867	0.884	0.848	0.997	0.84	0.921
HARA	0.235	0.271	0.167	0.257	0.278	0.541	0.611	0.223	0.367	0.313	0.431	0.575	0.499	0.528	0.616	1.05	1.08	0.894	1.01	1.07
HCC-15	0.787	0.649	0.689	0.718	0.728	1.18	1.32	1.34	1.43	1.25	0.917	0.88	0.875	0.832	0.828	0.831	0.833	0.834	0.813	0.825
HCC-44	0.969	0.978	0.959	0.99	0.966	0.916	1.11	1.04	1.07	1.04	1.16	1.03	1.13	1.08	1.11	0.769	0.811	0.82	0.855	0.821
HCC-78	0.457	0.395	0.443	0.42	0.458	0.978	0.697	0.837	0.684	0.681	0.527	0.411	0.577	0.432	0.389	0.378	0.337	0.422	0.353	0.343
HCC-366	0.369	0.388	0.41	0.29	0.405	0.232	0.293	0.34	0.35	0.193	0.355	0.315	0.346	0.285	0.446	0.606	0.56	0.445	0.335	0.374
HCC-827	0.485	0.488	0.478	0.466	0.481	0.223	0.269	0.356	0.236	0.187	0.983	0.849	0.896	0.802	1	0.965	0.9	0.861	0.981	0.943
HOP-62	0.375	0.47	0.516	0.467	0.543	0.659	0.592	0.826	0.846	0.82	0.61	0.833	0.655	0.617	0.813	0.857	0.919	0.971	0.731	0.502

Cell Line	relative viability ([1]; first compound 0.08 µM)	relative viability ([1]; first compound 0.253 µM)	relative viability ([1]; first compound 0.8 µM)	relative viability ([1]; first compound 2.53 µM)	relative viability ([1]; first compound 8 µM)	relative viability ([2]; first compound 0.08 µM)	relative viability ([2]; first compound 0.253 µM)	relative viability ([2]; first compound 0.8 µM)	relative viability ([2]; first compound 2.53 µM)	relative viability ([2]; first compound 8 µM)	relative viability ([3]; first compound 0.08 µM)	relative viability ([3]; first compound 0.253 µM)	relative viability ([3]; first compound 0.8 µM)	relative viability ([3]; first compound 2.53 µM)	relative viability ([3]; first compound 8 µM)	relative viability ([4]; first compound 0.08 µM)	relative viability ([4]; first compound 0.253 µM)	relative viability ([4]; first compound 0.8 µM)	relative viability ([4]; first compound 2.53 µM)	relative viability ([4]; first compound 8 µM)
IA-LM	–	–	–	–	–	–	–	–	–	–	–	0.857	1.06	1.04	0.778	1.12	0.76	1.09	0.827	0.876
NCI-H520	0.208	0.25	0.232	0.235	0.207	–	–	–	–	–	0.694	0.71	0.91	0.64	0.764	0.936	0.729	1.12	0.753	0.774
NCI-H522	0.97	0.972	0.968	–	0.86	0.821	0.907	0.848	–	0.78	0.922	0.946	1.05	–	0.825	–	–	–	–	–
NCI-H596	–	–	–	–	–	1.18	1.06	1.1	0.891	1.01	0.519	0.533	0.602	0.502	0.642	0.928	1	0.912	0.773	1.03
NCI-H661	0.418	0.41	0.411	0.371	0.432	–	–	–	–	–	0.815	0.863	0.809	0.793	0.734	1.02	0.921	1.22	0.996	1.08
NCI-H1299	–	–	–	–	–	–	–	–	–	–	–	–	–	–	–	0.995	0.956	1.01	0.945	0.941
NCI-H1395	0.629	0.603	0.616	0.572	0.656	0.366	0.4	0.412	0.428	0.387	0.714	0.726	0.826	0.618	0.701	–	–	–	–	–
NCI-H1563	–	–	–	–	–	–	–	–	–	–	–	–	–	–	–	0.943	0.827	0.828	0.858	0.903
NCI-H1648	0.242	0.232	0.335	0.26	0.25	0.676	0.846	0.89	0.769	0.81	0.377	0.689	0.566	0.423	0.419	–	–	–	–	–
NCI-H1650	0.297	0.456	0.447	0.442	0.432	–	–	–	–	–	0.583	0.592	0.646	0.489	0.549	0.966	1.01	1.14	0.938	1.02
NCI-H1703	–	–	–	–	–	0.14	0.139	0.0936	0.112	0.133	–	–	–	–	–	0.906	0.612	1.11	0.665	0.824
NCI-H1792	–	0.574	0.668	0.66	0.615	1.05	0.596	0.769	–	0.752	–	–	–	–	–	0.836	0.993	1.07	0.931	0.989
NCI-H1793	0.347	0.328	0.342	0.262	0.287	0.747	0.517	0.703	0.36	0.409	0.69	0.807	0.797	0.666	0.685	–	–	–	–	–
NCI-H2009	0.198	0.158	0.262	0.194	0.236	–	–	–	–	–	0.754	0.712	0.693	0.707	0.628	1.02	1.09	0.976	1.01	1.05
NCI-H2023	0.394	0.372	0.421	0.357	0.4	–	–	–	–	–	0.705	0.818	0.781	0.541	0.648	0.637	0.541	0.856	0.554	0.731
NCI-H2228	0.726	0.961	0.631	0.667	0.766	–	–	–	–	–	0.641	0.597	0.592	0.502	0.537	0.492	0.584	0.453	0.368	0.512
NCI-H2342	0.506	0.504	0.509	0.478	0.548	0.47	0.667	0.612	0.499	0.733	0.749	0.824	0.874	0.663	1.1	–	–	–	–	–
SK-LU-1	0.422	0.411	0.284	0.409	0.39	–	–	–	–	–	0.816	0.798	0.534	0.732	0.786	1.01	0.904	0.629	0.936	0.878
SK-MES-1	0.31	0.346	0.27	0.285	0.294	–	–	–	–	–	1.21	1.17	1	1.03	0.994	0.942	0.964	0.935	0.871	0.953
SW 1573	0.399	0.332	0.479	–	0.37	–	–	–	–	–	0.792	0.75	0.999	–	0.972	0.786	0.883	0.912	0.681	0.815
UMC-11	0.34	0.324	0.334	–	0.336	–	–	–	–	–	0.407	0.426	0.447	–	0.434	0.754	0.606	0.676	–	0.751
